Tests used:
C. pneumoniae AaxC = C. pneumoniae AaxC (Chlamydia pneumoniae, UniProt Q9Z6M8); settings: 1 mM L-arginine, E medium pH 5, 37 °C, 20 min; AaxB co-expressed; labelled compound
[1] = molecular target: AaxC (CT374) from C. trachomatis D/UW-3 (Chlamydia trachomatis, UniProt O84379); settings: 1 mM L-arginine, E medium pH 5, 37 °C, 20 min; AaxB co-expressed; labelled compound
Chain of AaxC (CT374) from C. trachomatis D/UW-3 (O84379 whole entry): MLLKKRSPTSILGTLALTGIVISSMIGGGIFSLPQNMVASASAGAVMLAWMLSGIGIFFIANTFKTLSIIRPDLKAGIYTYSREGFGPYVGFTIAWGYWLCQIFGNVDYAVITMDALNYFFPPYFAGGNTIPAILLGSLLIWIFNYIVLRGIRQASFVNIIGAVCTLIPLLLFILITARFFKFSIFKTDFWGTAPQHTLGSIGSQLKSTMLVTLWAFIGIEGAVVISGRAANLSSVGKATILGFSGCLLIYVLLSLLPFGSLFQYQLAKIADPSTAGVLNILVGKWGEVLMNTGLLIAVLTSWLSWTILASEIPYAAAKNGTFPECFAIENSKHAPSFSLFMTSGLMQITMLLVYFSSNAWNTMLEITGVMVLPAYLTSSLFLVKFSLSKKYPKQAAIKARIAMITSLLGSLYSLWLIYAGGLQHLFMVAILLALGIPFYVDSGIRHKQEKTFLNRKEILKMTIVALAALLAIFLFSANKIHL

Chain of C. pneumoniae AaxC (Q9Z6M8 whole entry): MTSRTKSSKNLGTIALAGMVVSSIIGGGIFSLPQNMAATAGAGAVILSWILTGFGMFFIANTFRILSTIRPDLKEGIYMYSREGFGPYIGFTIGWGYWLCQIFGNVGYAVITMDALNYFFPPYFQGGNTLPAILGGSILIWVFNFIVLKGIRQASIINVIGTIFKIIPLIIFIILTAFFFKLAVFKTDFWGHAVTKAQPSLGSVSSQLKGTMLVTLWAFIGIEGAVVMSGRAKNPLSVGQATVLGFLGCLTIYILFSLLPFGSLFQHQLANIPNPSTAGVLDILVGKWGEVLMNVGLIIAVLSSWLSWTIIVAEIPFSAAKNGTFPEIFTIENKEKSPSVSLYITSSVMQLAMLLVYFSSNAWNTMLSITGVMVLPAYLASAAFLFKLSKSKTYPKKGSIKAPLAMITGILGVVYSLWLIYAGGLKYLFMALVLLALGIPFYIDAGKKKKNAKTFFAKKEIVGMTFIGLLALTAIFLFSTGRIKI

For `N=C(N)NCCC[C@H](N)C(=O)O` [L-arginine], the “uptake of L-[2,3,4,5-3H]arginine by E. coli DEG0147 cells, filtration” value (C. pneumoniae AaxC) was “A significant difference in samples expressing C. pneumoniae aaxBC (relative to pBAD/HisA)” and the “uptake of L-[2,3,4,5-3H]arginine by E. coli DEG0147 cells, filtration” value [1] was “cells expressing D/UW-3 strain aaxBC genes showed significantly enhanced uptake”.

From publication PMC2720952 (BMC Evolutionary Biology, 2009)
